Data: ChEMBL document CHEMBL1287761, “The novel benzopyran class of selective cyclooxygenase-2 inhibitors-part I: the first clinical candidate” (Bioorg Med Chem Lett, 2010)

Experiments:
[1] = biological target: COX-1/COX-2 (Homo sapiens) (UniProt P35354+P23219); experiment: Selectivity ratio of IC50 for human COX-1 to IC50 for human COX-2
[2] = biological target: T1, Prostaglandin G/H synthase 2 (Homo sapiens, UniProt P35354); experiment: Inhibition of human COX-2
T1 sequence (P35354 whole entry): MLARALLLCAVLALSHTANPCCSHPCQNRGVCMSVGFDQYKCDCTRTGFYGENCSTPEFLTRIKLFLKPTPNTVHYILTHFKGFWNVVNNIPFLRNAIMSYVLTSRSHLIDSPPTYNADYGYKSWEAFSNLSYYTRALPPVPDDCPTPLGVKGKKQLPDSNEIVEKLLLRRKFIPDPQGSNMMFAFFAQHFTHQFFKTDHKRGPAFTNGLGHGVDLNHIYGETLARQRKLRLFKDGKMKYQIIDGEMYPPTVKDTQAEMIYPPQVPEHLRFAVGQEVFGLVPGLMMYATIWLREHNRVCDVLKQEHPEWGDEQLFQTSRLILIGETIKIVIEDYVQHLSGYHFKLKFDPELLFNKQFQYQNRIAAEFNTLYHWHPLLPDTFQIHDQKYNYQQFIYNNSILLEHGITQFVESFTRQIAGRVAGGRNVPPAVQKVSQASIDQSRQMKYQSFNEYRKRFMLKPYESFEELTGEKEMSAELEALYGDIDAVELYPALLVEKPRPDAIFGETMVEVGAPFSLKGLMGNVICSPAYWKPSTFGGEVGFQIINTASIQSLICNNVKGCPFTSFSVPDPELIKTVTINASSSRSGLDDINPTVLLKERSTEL

[3] = biological target: Prostaglandin G/H synthase 1 (Homo sapiens, UniProt P23219); experiment: Inhibition of human COX-1
Chain of Prostaglandin G/H synthase 1 (P23219 whole entry): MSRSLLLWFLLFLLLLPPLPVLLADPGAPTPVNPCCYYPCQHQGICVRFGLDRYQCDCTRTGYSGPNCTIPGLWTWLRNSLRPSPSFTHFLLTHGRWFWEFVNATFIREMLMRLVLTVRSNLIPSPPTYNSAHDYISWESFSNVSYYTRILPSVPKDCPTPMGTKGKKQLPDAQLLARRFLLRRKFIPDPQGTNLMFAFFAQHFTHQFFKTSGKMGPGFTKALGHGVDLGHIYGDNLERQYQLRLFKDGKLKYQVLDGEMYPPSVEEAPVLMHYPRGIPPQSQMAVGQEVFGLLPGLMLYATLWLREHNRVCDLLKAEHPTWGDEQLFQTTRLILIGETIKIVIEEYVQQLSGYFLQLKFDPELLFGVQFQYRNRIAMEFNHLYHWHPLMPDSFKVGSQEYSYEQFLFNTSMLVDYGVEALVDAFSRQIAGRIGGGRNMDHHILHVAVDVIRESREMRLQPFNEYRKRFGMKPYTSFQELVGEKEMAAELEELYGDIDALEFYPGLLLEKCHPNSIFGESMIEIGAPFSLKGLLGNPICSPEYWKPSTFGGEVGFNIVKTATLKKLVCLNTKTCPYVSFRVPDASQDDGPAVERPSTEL

Rattus norvegicus [4] = species: Rattus norvegicus; experiment: Antiinflammatory effect in complete Freund's adjuvant-induced Lewis rat arthritis model assessed as reduction in paw swelling by volume displacement plethysmometry; assay type: functional
Rattus norvegicus [5] = experiment: Antiinflammatory activity against carrageenan-induced paw edema in Sprague-Dawley rat administered 1 to 3 hrs after carrageenan challenge; assay type: functional
[6] = Half life in dog; assay type: ADME, organism-based, Canis lupus familiaris; conditions: in vivo
[7] = Half life in rat; assay type: ADME, organism-based; conditions: in vivo
Rattus norvegicus [8] = experiment: Antiinflammatory activity against carrageenan-induced inflammation in Sprague-Dawley rat air pouch model assessed as reduction in PGE2 level administered 3 hrs after carrageenan challenge; assay type: functional
Rattus norvegicus [9] = experiment: Analgesic activity against carrageenan-induced thermal hyperalgesia in Sprague-Dawley rat assessed as paw withdrawal latency administered 1 to 3 hrs after carrageenan challenge; assay type: functional

Chain of COX-1/COX-2 (Homo sapiens) (P23219 whole entry, looked up, one chain of several): as the sequence (P23219 whole entry) above

| Ratio IC50 [1] | IC50 [2] | IC50 [3] | Structure (SMILES) | further results |
| --- | --- | --- | --- | --- |
| 1520 | 62 nM | 94500 nM | O=C(O)C1=Cc2cc(Cl)c(Cl)cc2OC1C(F)(F)F (stereo not drawn) |  |
| 136 | 6 nM | 880 nM | O=C(O)C1=Cc2c(cc(Cl)c(Cl)c2Cl)OC1C(F)(F)F (stereo not drawn) |  |
|  |  |  | O=C(O)C1=Cc2cc(Cl)cc(Cl)c2O[C@@H]1C(F)(F)F | ED50 (Rattus norvegicus [4]): 0.03 mg/kg; ED50 (Rattus norvegicus [5]): 7.1 mg/kg; half-life [6]: 20.4 h; half-life [7]: 10.1 h; ED50 (Rattus norvegicus [8]; Rattus norvegicus, Sprague-Dawley, 3 h): 0.54 mg/kg; ED50 (Rattus norvegicus [9]): 2.6 mg/kg |
| 12 | 12000 nM | 145000 nM | O=C(O)C1=Cc2c(Cl)cc(Cl)cc2OC1C(F)(F)F (stereo not drawn) |  |
|  | 18 nM | 140 nM | C=Cc1cc(Cl)cc2c1OC(C(F)(F)F)C(C(=O)O)=C2 (stereo not drawn) |  |
| 1 | 300000 nM | 300000 nM | O=C(O)C1=Cc2ccc(Cl)c(Cl)c2OC1C(F)(F)F (stereo not drawn) |  |
| 110 | 100 nM | 11000 nM | O=C(O)C1=Cc2c(Cl)ccc(Cl)c2OC1C(F)(F)F (stereo not drawn) |  |
|  | 110 nM | 3110 nM | O=C(O)C1=Cc2cc(Cl)cc(-c3ccccc3)c2OC1C(F)(F)F (stereo not drawn) |  |
|  | 140 nM | 33000 nM | O=C(O)C1=Cc2cc(Cl)cc(C#Cc3ccccc3)c2OC1C(F)(F)F (stereo not drawn) |  |
|  | 760 nM | 1740 nM | NS(=O)(=O)c1ccc(-c2cc(Cl)cc3c2OC(C(F)(F)F)C(C(=O)O)=C3)cc1 (stereo not drawn) |  |
| 63 | 43 nM | 2700 nM | O=C(O)C1=Cc2cc(Cl)c(Cl)c(Cl)c2OC1C(F)(F)F (stereo not drawn) |  |
|  | 43 nM | < 350 nM | C#Cc1cc(Cl)cc2c1OC(C(F)(F)F)C(C(=O)O)=C2 (stereo not drawn) |  |
| 90 | 320 nM | 29200 nM | O=C(O)C1=Cc2cc(Cl)ccc2OC1C(F)(F)F (stereo not drawn) | ED50 (Rattus norvegicus [4]): 0.4 mg/kg; inhibition (INH) (Rattus norvegicus [8]): 98%; ED50 (Rattus norvegicus [9]): 6 mg/kg |
|  |  |  | Cc1ccc(-c2cc(C(F)(F)F)nn2-c2ccc(S(N)(=O)=O)cc2)cc1 [CELECOXIB] | ED50 (Rattus norvegicus [4]): 0.3 mg/kg; inhibition (INH) (Rattus norvegicus [8]): 94%; ED50 (Rattus norvegicus [9]): 35 mg/kg |
